Results reported in patent US20040006103A1, “Use of chloroquine, hydroxychloroquine and 4 amino-quinolinic derivatives to obtain a drug for the anti retroviral therapy, active towards HIV sensitive strains and towards HIV strains which are resistant to both nucleosidic and non-nucleosidic reverse transcriptase inhibitors and to proteases …” (VALPHARMA S.A., priority 2002, published 2004).
Like-named read-outs stand apart in the source and are kept apart here.

Experiments:
[1] = tested on: HIV clinical isolated, characterised by mutations in the RT gene inducing geno-phenotypic resistance to ddI; assay: p24 production susceptibility test (ACTG protocol), Table 2; type: cell-based, HIV-1; conditions: for EC50: Human immunodeficiency virus 1, PBMC, read-out: E.C.50 CQ; for S.I. CQ / Fen. CQ (fold): PBMC; for S.I. CQ: I.C.50/E.C.50; for Fen. CQ (fold): ratio to HIV-IIIB
Source text: (§1) For the phenotype of the nucleosidic, non-nucleosidic and proteases inhibitors was utilised a method which consider the use of human PBMC and the protocol standardised by the AIDS Clinical Trials Group, after verifying the genotype by sequence analysis.
(§2) In order to assay in vitro the susceptibility to chloroquine and hydroxychloroquine of the viral strains, it was used the protocol of the ACTG which is characterised by the measure, of the production of antigen p24 in strongly infected cells.
(§3) The susceptibility of the viral strains to chemotherapics was determined in cell cultures, prepared in 96 wells microplates, using, for the infection, 0.1 MOI.
(§4) The supernatant of the infected cultures (either in absence or in presence of different concentrations of chemotherapic) were tested for the production of p24 after 7 days, using an ELISA test which is commercially available.
(§5) The concentrations of chloroquine and hydroxychloroquine tested ranged from 0.5 to 15 uM. At the same time non-infected cells were incubated with concentrations of chloroquine and hydroxychloroquine ranging from 0 to 50 uM to evaluate the toxicity of the compound.
(§6) After 4 day from the infection, half the cellular medium was replaced with a medium containing the corresponding dilution of chloroquine and hydroxychloroquine. The percentage of inhibition of the HIV replication, induced by chloroquine and hydroxychloroquine, was determined, after 7 day from the infection, comparing the levels of p24 of this cultures and that of the control, infected and not treated with chloroquine and hydroxychloroquine.
(§7) Therefore, the E.C.50 of chloroquine and hydroxychloroquine expresses the concentration of chemotherapic that inhibits the 50% of production of p24 and the values were calculated using linear and non linear regression analysis (the significativity for the non linear regression was R^2>0.95).
(§8) In the same experimental conditions and in the same day, but with similar concentrations of chloroquine and hydroxychloroquine, it was evaluated the vitality of the infect cell cultures, and this was expressed as I.C.50.
(§9) I.C.50 (Inhibitory Concentration) indicates the concentration of the chemotherapic agent inhibiting the vitality of the cell cultures at a rate of 50%, when there is not infection.

[2] = tested on: HIV-1 clinical isolated, characterised by mutations in the RT gene inducing geno-phenotypic resistance to d4T; assay: p24 production susceptibility test (ACTG protocol), Table 4; type: cell-based; conditions: for EC50: Human immunodeficiency virus 1, PBMC, read-out: E.C.50 CQ; for S.I. CQ / Fen. CQ (fold): PBMC; for S.I. CQ: I.C.50/E.C.50; for Fen. CQ (fold): ratio to HIV-IIIB
Source text: as §1, §2, §3, §4, §5, §6, §7, §8, §9

[3] = tested on: HIV-1 strains geno-phenotypically resistant to NVP; assay: p24 production susceptibility test, Table 6, MT-2 cells; type: cell-based; conditions: for EC50: Human immunodeficiency virus 1, MT2, MT-2, read-out: E.C.50 CQ; for S.I. CQ / Fen. CQ (fold): MT-2; for S.I. CQ: I.C.50/E.C.50; for Fen. CQ (fold): ratio to HIV-IIIB
Source text: as §1, §2, §3, §4, §5, §6, §7, §8, §9

[4] = tested on: HIV-1 strains geno-phenotypically resistant to EFV; assay: p24 production susceptibility test, Table 7, MT-2 cells; type: cell-based; conditions: for EC50: Human immunodeficiency virus 1, MT2, MT-2, read-out: E.C.50 CQ; for S.I. CQ / Fen. CQ (fold): MT-2; for S.I. CQ: I.C.50/E.C.50; for Fen. CQ (fold): ratio to HIV-IIIB
Source text: as §1, §2, §3, §4, §5, §6, §7, §8, §9

[5] = tested on: HIV-1 clinical isolated, characterised by mutations on the protease gene inducing geno-phenotypic resistance to NFV; assay: p24 production susceptibility test, Table 10, H-9 cells; type: cell-based; conditions: for S.I. CQ / Fen. CQ (fold): H-9; for S.I. CQ: I.C.50/E.C.50; for Fen. CQ (fold): ratio to HIV-IIIB; for EC50: Human immunodeficiency virus 1, H9, H-9, read-out: E.C.50 CQ
Source text: as §1, §2, §3, §4, §5, §6, §7, §8, §9

[6] = tested on: HIV-1 strains cultivated in PBMC and isolated from patient naive to the treatment; assay: p24 production susceptibility test (ACTG protocol), Table 11; type: cell-based; conditions: for EC50: Human immunodeficiency virus 1, PBMC; for S.I. CQ: I.C.50/E.C.50
Description: as §2, §3, §4, §5, §6, §7, §8, §9

[7] = Gen M4IL M184V L210W R211KL 214F T215Y
[8] = Gen. K65R F77L Y115F Q151M M184V

Compound: CCN(CC)CCCC(C)Nc1ccnc2cc(Cl)ccc12 (centres unmarked) [CQ, chloroquine]
- EC50 ([1]; Gen D67N K70R M184V T215Y): 2500 nM
- EC50 ([1]; Gen D67N K70R T215F K70R): 3000 nM
- EC50 ([1]; Gen K70R T215F K219Q): 1800 nM
- EC50 [1, 7]: 2000 nM
- EC50 ([1]; Gen M41I T215F): 2000 nM
- EC50 ([1]; Gen M41L D67N K70R M184V T215Y): 2500 nM
- EC50 ([1]; Gen M41L D67N K70R T215Y): 3000 nM
- S.I. CQ ([1]; Gen D67N K70R M184V T215Y): 4.5
- Fen. CQ (fold) ([1]; Gen D67N K70R M184V T215Y): 1.5X fold
- S.I. CQ ([1]; Gen D67N K70R T215F K70R): 3
- Fen. CQ (fold) ([1]; Gen D67N K70R T215F K70R): 1.3X fold
- S.I. CQ ([1]; Gen K70R T215F K219Q): 5.5
- Fen. CQ (fold) ([1]; Gen K70R T215F K219Q): 0.7X fold
- S.I. CQ [1, 7]: 4.5
- Fen. CQ (fold) [1, 7]: 1.1X fold
- S.I. CQ ([1]; Gen M41I T215F): 4
- Fen. CQ (fold) ([1]; Gen M41I T215F): 1.1X fold
- S.I. CQ ([1]; Gen M41L D67N K70R M184V T215Y): 3.6
- Fen. CQ (fold) ([1]; Gen M41L D67N K70R M184V T215Y): 1.3X fold
- S.I. CQ ([1]; Gen M41L D67N K70R T215Y): 3.2
- Fen. CQ (fold) ([1]; Gen M41L D67N K70R T215Y): 1.2X fold
- EC50 [2, 8]: 3500 nM
- EC50 ([2]; Gen. K65R F116Y Q151M): 3500 nM
- EC50 ([2]; Gen. M41I T69SSS T215Y): 2800 nM
- EC50 ([2]; Gen. T69SSS T215Y): 2800 nM
- EC50 ([2]; Gen. V75I F77L F116Y Q151M): 2200 nM
- S.I. CQ [2, 8]: 3.4
- Fen. CQ (fold) [2, 8]: 2.3X fold
- S.I. CQ ([2]; Gen. K65R F116Y Q151M): 3.4
- Fen. CQ (fold) ([2]; Gen. K65R F116Y Q151M): 2.3X fold
- S.I. CQ ([2]; Gen. M41I T69SSS T215Y): 3.4
- Fen. CQ (fold) ([2]; Gen. M41I T69SSS T215Y): 1.8X fold
- S.I. CQ ([2]; Gen. T69SSS T215Y): 3.4
- Fen. CQ (fold) ([2]; Gen. T69SSS T215Y): 1.8X fold
- S.I. CQ ([2]; Gen. V75I F77L F116Y Q151M): 3
- Fen. CQ (fold) ([2]; Gen. V75I F77L F116Y Q151M): 1.5X fold
- EC50 ([3]; Gen. G190E): 3.5 µM
- EC50 ([3]; Gen. K103N): 3.2 µM
- EC50 ([3]; Gen. V106A): 2.8 µM
- EC50 ([3]; Gen. Y181C): 3.8 µM
- S.I. CQ ([3]; Gen. G190E): 6
- Fen. CQ (fold) ([3]; Gen. G190E): 1.9X fold
- S.I. CQ ([3]; Gen. K103N): 6.2
- Fen. CQ (fold) ([3]; Gen. K103N): 1.7X fold
- S.I. CQ ([3]; Gen. V106A): 7.8
- Fen. CQ (fold) ([3]; Gen. V106A): 1.5X fold
- S.I. CQ ([3]; Gen. Y181C): 6
- Fen. CQ (fold) ([3]; Gen. Y181C): 2.1X fold
- EC50 ([4]; Gen. K101D K103N): 2800 nM
- EC50 ([4]; Gen. K103N V108D): 2200 nM
- EC50 ([4]; Gen. K103N Y181C): 2500 nM
- EC50 ([4]; Gen. K103N): 2200 nM
- EC50 ([4]; Gen. L100I K103N): 3200 nM
- EC50 ([4]; Gen. Y181C): 1800 nM
- S.I. CQ ([4]; Gen. K101D K103N): 7.8
- Fen. CQ (fold) ([4]; Gen. K101D K103N): 1.8X fold
- S.I. CQ ([4]; Gen. K103N V108D): 6.8
- Fen. CQ (fold) ([4]; Gen. K103N V108D): 1.4X fold
- S.I. CQ ([4]; Gen. K103N Y181C): 8
- Fen. CQ (fold) ([4]; Gen. K103N Y181C): 1.6X fold
- S.I. CQ ([4]; Gen. K103N): 8.5
- Fen. CQ (fold) ([4]; Gen. K103N): 1.4X fold
- S.I. CQ ([4]; Gen. L100I K103N): 6.2
- Fen. CQ (fold) ([4]; Gen. L100I K103N): 2.1X fold
- S.I. CQ ([4]; Gen. Y181C): 8.5
- Fen. CQ (fold) ([4]; Gen. Y181C): 1.2X fold
- S.I. CQ ([5]; Gen. D30N): 4.2
- Fen. CQ (fold) ([5]; Gen. D30N): 1.3X fold
- S.I. CQ ([5]; Gen. V82A): 5
- Fen. CQ (fold) ([5]; Gen. V82A): 1.5X fold
- EC50 ([5]; Gen. D30N): 2500 nM
- EC50 ([5]; Gen. V82A): 2700 nM
- EC50 ([6]; HIV-1 virus sensitive to the anti-retroviral treatment, range over each experiment, read-out: E.C.50): 1500 to 3500 nM
- EC50 ([6]; PBMC, Virus N°1, read-out: E.C.50 CQ): 1500 nM
- EC50 ([6]; PBMC, Virus N°2, read-out: E.C.50 CQ): 2200 nM
- EC50 ([6]; PBMC, Virus N°3, read-out: E.C.50 CQ): 1800 nM
- EC50 ([6]; PBMC, Virus N°4, read-out: E.C.50 CQ): 2500 nM
- EC50 ([6]; PBMC, Virus N°5, read-out: E.C.50 CQ): 2000 nM
- S.I. CQ ([6]; PBMC, Virus N°1): 5
- S.I. CQ ([6]; PBMC, Virus N°2): 4
- S.I. CQ ([6]; PBMC, Virus N°3): 5
- S.I. CQ ([6]; PBMC, Virus N°4): 3.5
- S.I. CQ ([6]; PBMC, Virus N°5): 4
